In test [1] the test system is Haemonchus contortus normaler Stamm. As to the kind of experiment: Stomach and intestinal worm test in sheep (faecal egg count reduction), normal strain. In kind it is in vivo, Schaf. As to conditions: read-out: Dosis effectiva minima (Red. 90 % in mg/kg). An excerpt:
(§1) Magen- und Darmwurmtest/Schaf
(§2) Experimentell mit Haemonchus contortus infizierte Schafe wurden nach Ablauf der Präpatenzzeit der Parasiten behandelt. Die Wirkstoffmenge wurde als reiner Wirkstoff in Gelatinekapseln oral appliziert oder in einem geeigneten Lösungsmittel gelöst und subcutan oder dermal appliziert.
(§3) Der Wirkungsgrad wird dadurch bestimmt, daß man die mit dem Kot ausgeschiedenen Wurmeier vor und nach der Be-handlung quantitativ auszählt.
(§4) Ein völliges Sistieren der Eiausscheidung nach der Behandlung bedeutet, daß die Würmer abgetrieben wurden oder so geschädigt sind, daß sie keine Eier mehr produzieren können (Dosis effectiva). Geprüfte Wirkstoffe und wirksame Dosierungen (dosis effectiva minima) sind aus der nachfolgenden Tabelle ersichtlich.

Test [2] concerns Haemonchus contortus gegen Benz-imidazole resistenter Stamm. The experiment in a line: Stomach and intestinal worm test in sheep (faecal egg count reduction), benzimidazole-resistant strain. As to conditions: read-out: Dosis effectiva minima (Red. 90 % in mg/kg), per os, experimentally infected sheep. Format: in vivo, Schaf.
Source text: as §1, §2, §3, §4

Setting [3] is: per os, experimentally infected sheep, normaler Stamm.

Read-outs that look alike come from different tables or passages of the source.

Consider four compounds from patent EP0049797A2, “Anthelminticum containing 2-(2,3-dimethyl-phenoxy-methyl)-2-imidazoline” (BAYER AG, priority 1980, dated 1982).

`Cc1cccc(OCC2=NCCN2)c1C` [2-(2,3-Dimethyl-phenoxymethyl)-2-imidazolin]: the minimal effective dose in test [1] (dermal, experimentally infected sheep, normaler Stamm) is 1 mg/kg; in test [1] (setting [3]), 0.5 mg/kg; in test [1] (subcutan, experimentally infected sheep, normaler Stamm), 0.5 mg/kg.

For `CCCSc1ccc2nc(NC(=O)OC)[nH]c2c1` [Albendazol], the minimal effective dose in test [1] is 0.5 mg/kg; in test [2], 5 mg/kg.

Consider `CCCCc1ccc2[nH]c(NC(=O)OC)nc2c1` [Parbendazol], for which the minimal effective dose in test [1] is 1 mg/kg; in test [2], 10 mg/kg.

As to `c1ccc2[nH]c(-c3cscn3)nc2c1` [Thiabenzol], the minimal effective dose in test [1] (setting [3]) stood at 25 mg/kg; in test [2], 250 mg/kg.
